Results taken from ChEMBL document CHEMBL1156178, “Discovery of novel 6,6-heterocycles as transient receptor potential vanilloid (TRPV1) antagonists” (J Med Chem, 2010).
Converted amounts (≈) assume the structure as drawn.

Assays:
[1] = molecular target: Transient receptor potential cation channel subfamily V member 1 (Homo sapiens, UniProt Q8NER1); assay: Antagonist activity at human recombinant TRPV1 expressed in HEK293 cells assessed as inhibition of capsaicin-induced calcium mobilization by FLIPR assay
Chain of Transient receptor potential cation channel subfamily V member 1 (Homo sapiens, UniProt Q8NER1) (Q8NER1 whole entry): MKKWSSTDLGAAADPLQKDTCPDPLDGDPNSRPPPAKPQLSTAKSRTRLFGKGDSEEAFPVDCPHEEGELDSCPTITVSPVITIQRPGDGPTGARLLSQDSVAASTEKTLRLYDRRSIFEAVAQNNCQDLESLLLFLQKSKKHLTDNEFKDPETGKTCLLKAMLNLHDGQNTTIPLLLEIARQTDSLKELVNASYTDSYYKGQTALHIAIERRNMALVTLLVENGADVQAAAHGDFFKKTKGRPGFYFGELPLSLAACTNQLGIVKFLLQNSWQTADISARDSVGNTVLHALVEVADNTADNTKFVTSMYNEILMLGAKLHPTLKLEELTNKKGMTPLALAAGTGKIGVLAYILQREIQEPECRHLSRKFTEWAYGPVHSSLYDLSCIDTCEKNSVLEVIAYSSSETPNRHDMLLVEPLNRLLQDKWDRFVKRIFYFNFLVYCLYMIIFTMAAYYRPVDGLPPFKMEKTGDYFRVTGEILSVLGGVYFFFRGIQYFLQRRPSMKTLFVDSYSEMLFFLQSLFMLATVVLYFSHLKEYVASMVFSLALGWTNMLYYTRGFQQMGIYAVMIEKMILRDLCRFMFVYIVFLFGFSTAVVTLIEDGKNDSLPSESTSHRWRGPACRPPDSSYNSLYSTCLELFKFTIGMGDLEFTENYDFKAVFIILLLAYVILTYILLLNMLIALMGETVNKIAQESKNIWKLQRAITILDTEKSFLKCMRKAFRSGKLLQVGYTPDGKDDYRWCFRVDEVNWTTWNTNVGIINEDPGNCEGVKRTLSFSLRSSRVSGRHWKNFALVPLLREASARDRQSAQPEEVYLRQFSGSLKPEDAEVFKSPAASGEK

[2] = Solubility in 0.1 N HCL after 4 hrs by HPLC/MS analysis; assay type: physicochemical
[3] = molecular target: Transient receptor potential cation channel subfamily V member 1 (Rattus norvegicus, UniProt O35433); assay: Inhibition of rat TRPV1
Chain of Transient receptor potential cation channel subfamily V member 1 (Rattus norvegicus, UniProt O35433) (O35433 whole entry): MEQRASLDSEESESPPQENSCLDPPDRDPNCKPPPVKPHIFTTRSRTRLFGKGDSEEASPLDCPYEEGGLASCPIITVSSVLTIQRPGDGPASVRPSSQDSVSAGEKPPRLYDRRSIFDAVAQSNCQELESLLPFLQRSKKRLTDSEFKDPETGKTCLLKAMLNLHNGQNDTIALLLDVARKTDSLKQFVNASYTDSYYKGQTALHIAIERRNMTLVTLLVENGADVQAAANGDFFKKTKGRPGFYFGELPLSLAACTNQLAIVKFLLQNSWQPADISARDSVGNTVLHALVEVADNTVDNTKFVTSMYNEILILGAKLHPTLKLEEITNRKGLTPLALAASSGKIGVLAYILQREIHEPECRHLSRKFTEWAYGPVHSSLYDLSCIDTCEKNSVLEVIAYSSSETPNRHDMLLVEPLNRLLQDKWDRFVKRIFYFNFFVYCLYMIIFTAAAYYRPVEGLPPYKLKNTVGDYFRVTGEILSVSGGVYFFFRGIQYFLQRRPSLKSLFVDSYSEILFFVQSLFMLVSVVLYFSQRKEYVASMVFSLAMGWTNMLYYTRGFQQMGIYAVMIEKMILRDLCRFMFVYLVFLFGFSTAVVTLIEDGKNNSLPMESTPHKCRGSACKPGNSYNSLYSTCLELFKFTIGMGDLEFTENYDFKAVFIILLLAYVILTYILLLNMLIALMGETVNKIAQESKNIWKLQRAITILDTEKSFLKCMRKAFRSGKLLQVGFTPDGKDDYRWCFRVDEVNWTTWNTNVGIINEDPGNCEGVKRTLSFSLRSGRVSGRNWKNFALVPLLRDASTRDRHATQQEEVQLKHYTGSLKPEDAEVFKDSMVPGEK

Compound | IC50 [1] | solubility at 4 h [2] | IC50 [3]
FC(F)(F)c1ccc(Nc2ccnc3nc(-c4ncccc4C(F)(F)F)cnc23)nc1 | 0.23 nM | 8 µg/mL (≈ 18.3 µM) | 
FC(F)(F)c1ccc(Nc2cnnc3cc(-c4ncccc4C(F)(F)F)ccc23)nc1 | 29 nM |  | 
O=C(Nc1ccccc1Br)N[C@@H]1CCN(c2ccc(C(F)(F)F)cn2)C1 [SB-705498] |  |  | 32 nM
FC(F)(F)c1ccc(Nc2ncnc3nc(-c4ncccc4C(F)(F)F)ccc23)cc1 | 0.83 nM | 9 µg/mL (≈ 20.7 µM) | 
FC(F)(F)c1ccc(Nc2ncnc3nc(-c4ncccc4C(F)(F)F)ncc23)cc1 | 665 nM | 4 µg/mL (≈ 9.17 µM) | 
FC(F)(F)c1ccc(Nc2nccc3nc(-c4ncccc4C(F)(F)F)cnc23)nc1 | 79 nM | 12 µg/mL (≈ 27.5 µM) | 
FC(F)(F)c1ccc(Nc2ccnc3cc(-c4ncccc4C(F)(F)F)ccc23)nc1 | 1.65 nM | 34 µg/mL (≈ 78.3 µM) | 
FC(F)(F)c1ccc(Nc2ccnc3cc(-c4ncccc4C(F)(F)F)cnc23)nc1 | 308 nM | 38 µg/mL (≈ 87.3 µM) | 
